Measured values reported in ChEMBL document CHEMBL3507680, “University of Dundee, Gates Library screen for HepG2 cell viability”.

Experiment: Human HepG2 cell viability assay in 384 well format
Type: toxicity, cell-based
Parameters: dose 125 nL, time 70.5 hour; concentration not given beside the values
Conditions: HepG2 cells, read-out: Inhibition

Compound	cytotoxicity at 70.5 h
CS(=O)(=O)N1CCN(c2ccc(Nc3ccccn3)nn2)CC1	-6.91%
Cc1ccc(C(=O)N2C[C@@H](N3CCN(C)CC3)[C@H]3OCCC[C@H]32)cn1	-11.9%
COc1c(CNC2CCCc3ccccc32)c(C(C)C)nn1C (stereo unspecified)	9.34%
O=C(Cc1cccnc1)NC1CCCN(CCCc2ccccc2)C1 (stereo unspecified)	-8.8%
COc1cccc2c1OCC(C(=O)N(Cc1ccncc1)CC(C)C)C2 (stereo unspecified)	15.1%
Nc1cc(C(=O)NCC2CCN(Cc3ccncc3F)C2)ccn1 (stereo unspecified)	20.9%
Cc1cnc(-n2cnnc2)c(-c2cccc3c2CCNC3)c1	-7.78%
COc1ccc(CC2CN(Cc3cncn3C)CCO2)cc1 (stereo unspecified)	-9.57%
O=S1(=O)CCC(n2nc(Cc3cccs3)nc2-c2cnccn2)C1 (stereo unspecified)	0.418%
CC(=O)N1[C@H](Cn2cncn2)C[C@@H]2CN(Cc3nccs3)CC[C@@H]21	14.9%
COCC(=O)N1C[C@H]2CN(Cc3csc(C)n3)C(=O)[C@H]2C1	-8.09%
N#Cc1c2n(c3c(N)ncnc13)CCCCC2	16.8%
COC1CCN(CC(=O)NCc2ccc(OCC(N)=O)cc2)CC1	0.0627%
Cc1cccc(-n2c(C)cc(C(=O)NS(C)(=O)=O)c2C)c1	-14.6%
CC(C)c1ccc(-n2cc(O)c(C(=O)N3CCC(C(N)=O)CC3)n2)cc1	0.806%
N#CCCCn1cnc2c(F)cc(Br)cc2c1=O	-5.69%
CC(C)c1nnc2n1CCN(C(=O)c1ccc(OCC(N)=O)cc1)C2	-4.33%
CC(Cc1ccccc1F)C(=O)Nc1cccc(OCC(N)=O)c1 (stereo unspecified)	-2.21%
CC(=O)N[C@@H](CC(C)C)C(=O)N1CCC(n2cc(CC(C)C)nn2)CC1	6.61%
CC(=O)N(C)C1CCCc2nc(C)sc21 (stereo unspecified)	-11%
Cc1cc(CN2CC[C@H]3C[C@H](C)O[C@@H]3C2)no1	-13.8%

Compound	cytotoxicity at 70.5 h
O=C(O)Cn1nc(C2CC2)c2c(-c3cccs3)ccnc21	25.1%
CNS(=O)(=O)c1ccc(CN2CCCN(CC(C)C)CC2)cc1	-0.0493%
COc1cc(OC)cc(C(=O)N(C)Cc2nnc3ccccn23)c1	-1.71%
COc1cccc2ccc(CN3CCN(c4ccncc4)CC3)nc12	-9.89%
Cc1cn2c(=O)c(-c3ccnc(N4CCC[C@@H]4CO)n3)cnc2s1	-3.36%
Cc1ccc(CN2CCCn3nnc(COCC4CC4)c3C2)s1	-1.67%
CCN1CCC2(CCC1=O)CN(c1cnc3ccccc3n1)CCN2C (stereo unspecified)	-2.99%
Cc1nc(CCNC2CCN(Cc3ccccc3)C2)sc1C (stereo unspecified)	-4.05%
CN(CCc1ccncc1)C(=O)C1CSCN1C(=O)CC(C)(C)C (stereo unspecified)	-12.5%
CN(C)CCCn1ccnc1C1CCCN(c2ncc(Cl)cc2F)C1 (stereo unspecified)	-2.12%
Cc1nn(C)c(C)c1CCC(=O)N1CCN(CCn2cncn2)CC1	14.9%
COC(=O)c1ccoc1CN(C)CC(=O)NC1CC1	-5.08%
O=C(c1cnc(C2CC2)nc1)N1CCC(N2CCC(O)CC2)CC1	14.2%
COc1cccc(F)c1C(C)NC(=O)NCc1cc(C(C)C)no1 (stereo unspecified)	-12.9%
CCN(C)S(=O)(=O)N1CCCC1CC(=O)c1cccs1 (stereo unspecified)	32.3%
CCCC(C)C(=O)N1CCC(c2cc(N3CCOCC3)nc(C)n2)CC1 (stereo unspecified)	-1.55%
CNS(=O)(=O)CC1CCCN1c1ccc(Br)cn1 (stereo unspecified)	-0.632%
Cc1cccc(NCC(=O)NC2(C#N)CCCC2)c1C(=O)N1CCCC1	2.28%
CC(C)CCN1C2(CCN(C(=O)N(C)C)C2)c2ccccc2S1(=O)=O (stereo unspecified)	-17.2%
Cn1nc(C(=O)NCc2ccc(OC3CCCCC3)nc2)ccc1=O	21.9%
CCN(C)C(=O)NCC1(CN2CCOCC2)CCCCC1	-4.49%

Compound	cytotoxicity at 70.5 h
Cc1ccccc1[C@@H]1CN(CCOCCO)C[C@H]1C(=O)O	-6.95%
O=C(NCCNc1ncccn1)C1CCCC1	15.4%
Cc1ccc(CN(Cc2cc(=O)n3cccc(C)c3n2)C(C)C)o1	-14.3%
CCOC(=O)C1CCN(Cc2c(O)ccc3oc4c(c23)CCCC4)CC1	11.2%
CCCOCC1CCN(C(=O)Cn2cccc(OC)c2=O)C1 (stereo unspecified)	-9.9%
Cc1nnc(N2CCCC3(CN(Cc4nccs4)CCO3)C2)o1 (stereo unspecified)	34.9%
CCc1nc(CN2CCCC(N(C)CCc3cccs3)C2)no1 (stereo unspecified)	21.1%
CCOc1ccnc(N2CCN(C(=O)CCc3ccncc3)CC2)n1	0.226%
COc1c(CNC2CCCOc3ccc(F)cc32)c(C(C)C)nn1C (stereo unspecified)	-4.87%
Fc1ccc(Cc2cccc(C3CCN(C4CCOCC4)CC3)n2)cc1	0.432%
Cc1csc(N2CCN(Cc3ccn(C)c(=O)c3)CC2)n1	-5.98%
COCCN(Cc1ccc(C)o1)C(=O)Nc1nnc2ccccn12	-16.7%
Cc1cc2ccccc2n1CCC(=O)NCCS(C)(=O)=O	-10.9%
Cc1cnn(CCNCc2cc(=O)n3cc(Cl)ccc3n2)c1	-6.7%
CN1CCC2(CCC1=O)CCN(C(=O)Cc1ccc(O)c(F)c1)CC2	2.31%
CCc1ncnc(N2CCCC(c3cc(C(N)=O)[nH]n3)C2)c1F (stereo unspecified)	-3.89%
CC1(C2CCN(CCCC(=O)O)CC2)CN(Cc2ccccc2)C(=O)O1 (stereo unspecified)	2.48%
O=C(CSC1=NS(=O)(=O)c2cc(F)ccc2N1)c1ccc(Cl)cc1	-17.3%
Cc1ccc(C(=O)NCCCn2cncn2)c(=O)[nH]1	21.9%
N[C@@H]1c2ccccc2C2(CCN(c3cc(C(F)(F)F)ccn3)CC2)[C@H]1O	39.4%
CC(C)c1ccc(NS(=O)(=O)CC2=NC(=O)n3cccc3C2=O)cc1	-18.1%

Compound	cytotoxicity at 70.5 h
Cc1nn(C)cc1-c1cc(C(F)F)nc2sc(C(N)=O)c(N)c12	7.12%
CS(=O)(=O)NC[C@]12COC[C@H]1CN(C(=O)c1ccccc1)C2	-3.75%
CCS(=O)(=O)N1CCC2(CC1)CN(CC1CCOC1)c1ccccc12 (stereo unspecified)	26%
Cc1nn(CCC(=O)N2CCN(Cc3cnn(C)c3C)CC2)c(C)c1Br	1.42%
O=C(c1ccoc1)N1CCC2(C1)CN(c1ncc(F)cn1)C2	-0.91%
CCN1CCC(CNC(=O)Nc2cccnc2OC)CC1	-6.19%
CCOCCOC(C)C(=O)NCc1cn2cc(Cl)ccc2n1 (stereo unspecified)	15.2%
COc1c(C2CCCN2C(=O)c2ccoc2C)c(C)nn1C (stereo unspecified)	7.26%
CCc1nccn1C1CCCN(C(=O)c2ccc(C(N)=O)cn2)C1 (stereo unspecified)	-9.53%
Cc1ccccc1OCCN1CCCC1CS(N)(=O)=O (stereo unspecified)	0.0321%
Cc1ccoc1-c1nnc(CN2CCn3c(nnc3C(C)C)C2)o1	-2.59%
COCCOCC(=O)N1C[C@@H]2CC[C@H](Oc3ccccc3Cl)[C@@H]2C1	0.895%
O=C(NCc1cccs1)c1nc2c(o1)CN(c1ncccn1)C2	-6.55%
CNS(=O)(=O)c1cccc(C(C)NCc2ccccc2OC)c1 (stereo unspecified)	-4.76%
Cc1nc(C)c(CN2CCOC[C@H](Oc3ccc(S(C)(=O)=O)cc3)C2)s1	0.478%
CCC(C(=O)NCc1cccnc1)N(c1cccc(C)c1)S(C)(=O)=O (stereo unspecified)	6.87%
CCC(=O)N(C)CC(=O)Nc1ccc(Br)cn1	2.06%
CN(Cc1ccccc1)C(=O)CCNc1ncccc1C#N	-4.83%
